Measured values as given in US11319341B2, “Immune-stimulating soluble doxorubicin-conjugated complex” (Yafei (Shanghai) Biopharmaceutical Co., Ltd., priority 2016, dated 2022).

Legend:
[1] = tested on: acidized human breast cancer (MDA-MB435) tumor tissue homogenates; test: Activation efficiency of the linker by tumor tissue homogenates (HPLC); type: biochemical; settings: Table 4-1; 37° C., MDA-MB435 tumor tissue homogenates pH6.0, compound 1 mg/ml
Description: When the C selected AAN, The activation of different S-C-A linker and control linker was evaluated in the activation assay, The S-C-A conjugate was used to dissolve and they were diluted for ten times to a concentration of 0.1 mM/ml. At 37° C., sample compounds were added into 100 μg acidized human breast cancer (MDA-MB435) tumor tissue homogenates (pH6.0) in a concentration of 1 mg/ml. The enzyme in tumor tissue homogenates could release and detected by HPLC, thereby comparing the activation efficiency of the linker by the tumor tissue.

[2] = tested on: tumor CD8+ T cells; test: CT26 tumor immune model: tumor CD8+ T cells (CD8 positive in CD45 positive cells, flow cytometry); type: in vivo, BALB/c mice; settings: ratio of CD8 positive cells in CD45 positive cells in tumor, compounds 18 μmol/kg, PD-1 antibody 5 mg/kg
Description: (§3) 2) 5×10^5CT26 cancer cells were subcutaneously injected to the back of the nude mice. Mice were randomly grouped after the tumor reached at least 100 mm^3 Then treatment began and the day on which the treatment began was day 1.
3) Analysis on tumor CD8+ T cells. The tumor tissue was homogenated and individual cells in the tumor were filtered, separated and washed by buffer twice, then cultivated with the leucocyte common antigen CD45-PE and CD8-FITC marked antibodies for 1 hour at ambient temperature. The cells were washed by phosphate buffer containing 1% fetal bovine serum twice and then analyzed for the ratio of the T lymphocyte antigen (CD8) positive cells in the leucocyte common antigen (CD45) positive cells by flow cytometry.

[3] = Water solubility of freeze-dried compounds in water (observation and HPLC)
[4] = tested on: HT1080 cells; test: Efficacy in HT1080 tumor model; type: in vivo; settings: HT1080, nude mice, 18 umol/kg IV once weekly for 3 weeks
Text: Test purpose: to investigate the anti-tumor efficacy of QHL-086, QHL-092, QHL-095, QHL-087, QHL-010, QHL-117 in mice model for tumor treatment.
Test drug: C3, QHL-086, QHL-092, QHL-095, QHL-087, QHL-010, QHL-117 injections and mitomycin injection, diluted to corresponding concentrations by physiological saline when testing.
(§1) 1. Animal: nude mice of 6-8 weeks old, all female.
1) HT1080 cells were purchased from American type culture collection (ATCC) and identified according the specification provided by ATCC.
(§2) 2) Production of tumor. […] Mice were randomly grouped after the tumor reached at least 100 mm^3. Then treatment began and the day on which the treatment began was day 1.
According to the clinical application of C3, QHL-086, QHL-092, QHL-095, QHL-087, QHL-010, QHL-117 were intravenously injected (IV). C3, QHL-086, QHL-092, QHL-095, QHL-087, QHL-010, QHL-117 were administered in a low and same dose of 18 umol/kg. The control group was administered by physiological saline. Drugs were administered once weekly for 3 weeks.

[5] = Tissue distribution of released doxorubicin in orthotopic transplantation CT26 tumor in liver; settings: tissues at 1-72 hr, FIG. 2, FIG. 3
Description: Production of tumor model: CT26 tumor cells were purposed from ATCC. Cells were cultivated in DMEM culture solution containing 10% fetal bovine serum at 37° C. and 5% CO2. The cells were passaged for every three days and cells within the 15th passage were used.
5×10^5CT26 cancer cells were subcutaneously injected to the back of the nude mice. Mice were randomly grouped after the tumor reached 800-1000 mm^3. Then extract the tumor tissue and cleave to 100 mm3 tumor tissue block and orthotopic transplant into BALB/c mice liver. After 14 days, when orthotopic transplantation tumor grow up, 36 mice with orthotopic transplantation tumor for a group are treated with drug. Then collect the different tissue at 1, 6, 12, 24, 36, 72 hr to detect the concentration of releasing doxorubicin in different tissue.

[6] = tested on: Human liver cancer HepG2 cells; test: Efficacy on human liver cancer HepG2 cells in nude mice; type: in vivo; settings: 54 umol/kg IV once weekly for four weeks
Text: Test purpose: to investigate the anti-tumor efficacy of some compounds of the invention in mice model for tumor treatment.
Test drug: QHL-095, QHL-008, QHL-086, QHL-116, QHL-119, QHL-092, QHL-006, QHL-089, QHL-005, QHL-007, QHL-096, QHL-012, QHL-087, QHL-117, QHL-120, QHL-093, QHL-010, QHL-090, QHL-009, QHL-011 injections and control group injection, diluted to corresponding concentrations by physiological saline when testing.
as §1
1) Human liver cancer HepG2 cells were purchased from American type culture collection (ATCC) and identified according the specification provided by ATCC.
as §2
According to the clinical application of QHL-095, QHL-008, QHL-086, QHL-116, QHL-119, QHL-092, QHL-006, QHL-089, QHL-005, QHL-007, QHL-096, QHL-012, QHL-087, QHL-117, QHL-120, QHL-093, QHL-010, QHL-090, QHL-009, QHL-011, drugs were intravenously injected (IV). Compounds and control groups were administered in a dose of 54 umol/kg. The control group was administered by physiological saline. Drugs were administered once weekly for four weeks.

[7] = tested on: CT26 tumor cells; test: CT26 tumor immune model: inhibition of tumor; type: in vivo; settings: CT26 subcutaneous tumor, BALB/c mice, compounds 18 μmol/kg, mouse PD-1 antibody 5 mg/kg
Description: Test purpose: to investigate the anti-tumor efficacy of different compounds in CT26 cancer model for immune treatment.
1) CT26 tumor cells were purposed from ATCC. Cells were cultivated in DMEM culture solution containing 10% fetal bovine serum at 37° C. and 5% CO2. The cells were passaged for every three days and cells within the 15th passage were used.
as §3

COc1cccc2c1C(=O)c1c(O)c3c(c(O)c1C2=O)C[C@@](O)(C(=O)CO)C[C@@H]3O[C@H]1C[C@H](NC(=O)[C@H](CC(C)C)NC(=O)[C@H](CC(N)=O)NC(=O)[C@H](C)NC(=O)[C@H](C)NC(=O)CCCCCN2C(=O)C=CC2=O)[C@H](O)[C@H](C)O1 [C3 EMC-AANL-DOX]
Activation (%) [1]: 56.4%
CD8:CD45 (%) [2]: 8.9%
solubility [3]: < 5000 µg/mL
Size of tumor (mm^3) Day 28 [4]: 138.3 ± 124.6 mm^3
inhibitory rate on tumor Day 28 [4]: 92.1%
active doxorubicin tissue distribution, in words [5]: major in orthotopic tumor in liver
Size of tumor (mm^3) Day 28 [6]: 218.3 ± 167.7 mm^3
inhibitory rate on tumor Day 28 [6]: 92.5%
inhibitory rate on tumor % Day 18 ([7]; Day 18 as printed): 66.9%
Size of tumor (mm^3) Day 28 ([7]; Day 28): 624.5 ± 313.6 mm^3
